Assay results published in ChEMBL document CHEMBL1857833, “Screening and optimization of specific chemical series against human African Trypanosomiasis (HAT)”.
≈ marks a conversion by molar mass, not a printed value.

Assays:
[1] = DNDI: Cytotoxicity against L929 mouse fibroblasts, 72 hour.; format: toxicity, cell-based; details: mouse, L929 mouse fibroblasts
Trypanosoma brucei = test: DNDI: Inhibition of Human African Trypanosomiasis, SBRI 427, in vitro; format: functional, organism-based
[2] = Trypanosoma brucei, SBRI 427, read-out: IC50

| SMILES | IC50 (Trypanosoma brucei; [2]) | IC50 (Trypanosoma brucei) | IC50 at 72 h [1] |
| --- | --- | --- | --- |
| COc1ccc(S(=O)(=O)Nc2ccccn2)cc1OC | > 5 µg/mL |  | > 10 µg/mL |
| COc1ccc(/C(=N/O)Nc2cccc(C)c2)cc1 |  |  | > 10 µg/mL |
| O/N=C1\COc2ccccc21 | > 5 µg/mL |  | > 10 µg/mL |
| CCCCc1ccc(-c2nc(CNC(CC)CC)co2)cc1 | 0.63 µg/mL (≈ 2.1 µM) |  | 1.83 µg/mL (≈ 6.09 µM) |
| CCCCc1ccc(-c2nc(CNCCCN3CCCCC3)co2)cc1 | 2.01 µg/mL (≈ 5.65 µM) | 1.48 µg/mL (≈ 4.16 µM) | 6.2 µg/mL (≈ 17.4 µM) |
| CCCCc1ccc(-c2nc(CC)co2)cc1 | > 5 µg/mL |  | 6.2 µg/mL (≈ 27 µM) |
| CCCC(CCC)NCc1coc(-c2ccccc2OCC)n1 | 1.76 µg/mL (≈ 5.56 µM) |  |  |
| C[C@H]1C(NCc2coc(-c3ccc(O)cc3)n2)C[C@@H]2C[C@H]1C2(C)C (some centres not stated) | 1.36 µg/mL (≈ 4.17 µM) |  |  |
| COc1ccc(/C=N/OCc2c(F)c(F)c(F)c(F)c2F)cc1 | > 5 µg/mL |  | > 10 µg/mL |
| CCCCc1ccc(-c2nc(C)c(C)o2)cc1 | > 5 µg/mL |  | 5.21 µg/mL (≈ 22.7 µM) |
| CCCCc1ccc(-c2nc(CNCCCN3CCCC3)co2)cc1 | 1.6 µg/mL (≈ 4.69 µM) | 0.89 µg/mL (≈ 2.61 µM) | 6.03 µg/mL (≈ 17.7 µM) |
| C[C@H]1C(NCc2coc(-c3cccc(F)c3)n2)C[C@@H]2C[C@H]1C2(C)C (some centres not stated) | 1.56 µg/mL (≈ 4.75 µM) |  |  |
| CCCCCCCCCCOc1ccc(-c2nc(CN[C@@H]3C[C@@H]4C[C@H]([C@H]3C)C4(C)C)co2)cc1 | > 5 µg/mL |  | 7.22 µg/mL (≈ 15.5 µM) |
| CCCCCC(C)NCc1coc(-c2ccc(CC)cc2)n1 (configuration not stated) | 1 µg/mL (≈ 3.33 µM) |  | 2.61 µg/mL (≈ 8.69 µM) |
| C[C@@H]1C(NCc2coc(-c3cccc(F)c3)n2)C[C@H]2C[C@@H]1C2(C)C (some centres not stated) | 1.18 µg/mL (≈ 3.59 µM) |  |  |
| CCCCCCNCc1coc(-c2ccc(CCCC)cc2)n1 | 0.37 µg/mL (≈ 1.18 µM) |  | 1.15 µg/mL (≈ 3.66 µM) |
| Fc1c(F)c(F)c(CO/N=C/c2ccccc2-c2ccccc2)c(F)c1F | > 5 µg/mL |  | > 10 µg/mL |
| C(=N\Oc1ccccc1)/c1ccccc1-c1ccccc1 | > 5 µg/mL |  | > 10 µg/mL |
| CCCCc1ccc(-c2nc(CNCCC)co2)cc1 | 0.75 µg/mL (≈ 2.75 µM) |  | 4.29 µg/mL (≈ 15.7 µM) |
| CCCCc1ccc(-c2nc(-c3cc(-c4ccccc4)no3)co2)cc1 | > 5 µg/mL |  | > 10 µg/mL |
| CCC(C)C(NCc1ccc(C)cc1)c1nc(Cc2ccccc2)c(N2CCCCC2)o1 (configuration not stated) | > 5 µg/mL |  | > 10 µg/mL |
| CCCCCCCCCCOc1ccc(-c2nc(CNC(C)CCCCC)co2)cc1 (configuration not stated) | 1.35 µg/mL (≈ 3.15 µM) |  | 2.9 µg/mL (≈ 6.77 µM) |

Continued, in another order:

| IC50 (Trypanosoma brucei; [2]) | IC50 (Trypanosoma brucei) | SMILES | IC50 at 72 h [1] |
| --- | --- | --- | --- |
| > 5 µg/mL |  | COc1ccc(S(=O)(=O)Nc2ccccn2)cc1 | > 10 µg/mL |
| 0.43 µg/mL (≈ 1.35 µM) |  | CCC(CC)N/C(=N\O)c1cccnc1Oc1ccccc1F |  |
| > 5 µg/mL |  | CCc1cccc(NS(=O)(=O)c2ccc(OC)cc2)c1 | 1.88 µg/mL (≈ 6.45 µM) |
| 37.5 µg/mL (≈ 105 µM) |  | Cc1ccc(/C(=N/O)NCCN2CCCC2)c(Oc2ccc(F)cc2)n1 |  |
| 6.96 µg/mL (≈ 21.4 µM) |  | Cc1ccc(Oc2nc(C)ccc2/C(=N/O)NC2CCCC2)cc1 |  |
| > 5 µg/mL |  | O/N=C(\NC1CCCCC1)c1ccc(Oc2ccc3ccccc3c2)nc1 |  |
| 3.8 µg/mL (≈ 10.3 µM) |  | O/N=C(\NC1CCCC1)c1ccc(Oc2c(F)c(F)cc(F)c2F)nc1 |  |
| 0.09 µg/mL (≈ 0.255 µM) |  | CC(C)c1ccc(Oc2ncccc2/C(=N\O)NC2CCCCC2)cc1 | 6.75 µg/mL (≈ 19.1 µM) |
| 40.8 µg/mL (≈ 126 µM) |  | CCc1ccc(Oc2ccc(/C(=N/O)NC3CCCC3)cn2)cc1 |  |
| 5 µg/mL (≈ 15.1 µM) |  | O/N=C(\NC1CCCC1)c1ccnc(Oc2ccc(Cl)cc2)c1 |  |
| 1.61 µg/mL (≈ 4.92 µM) |  | CCC(CC)N/C(=N\O)c1ccc(Oc2cc(C)cc(C)c2)nc1 |  |
| 3.79 µg/mL (≈ 9.23 µM) |  | O/N=C(\NCc1cccnc1)c1ccc(Oc2ccc3oc4ccccc4c3c2)nc1 |  |
| 3.65 µg/mL (≈ 11.1 µM) |  | CCC(CC)N/C(=N\O)c1ccnc(Oc2ccc(OC)cc2)c1 |  |
| 18.2 µg/mL (≈ 57.8 µM) |  | O/N=C(\NC1CCCC1)c1cccnc1Oc1ccccc1F |  |
| 1.3 µg/mL (≈ 4.57 µM) |  | CCCCc1ccc(-c2nc(CNC3CCC3)co2)cc1 | 3.51 µg/mL (≈ 12.3 µM) |
| 4.06 µg/mL (≈ 10.6 µM) |  | O/N=C(\NC1CCCCC1)c1ccc(Oc2c(F)c(F)cc(F)c2F)nc1 |  |
| 1.06 µg/mL (≈ 2.84 µM) |  | O/N=C(\NC1CCC1)c1ccc(Oc2ccc3oc4ccccc4c3c2)nc1 |  |
| 3.75 µg/mL (≈ 10 µM) |  | Cc1ccc(/C(=N/O)Nc2cccc(F)c2)c(Oc2c(F)cccc2F)n1 | > 10 µg/mL |
| 0.86 µg/mL (≈ 2.46 µM) |  | CCC(C)(C)N/C(=N\O)c1ccc(Oc2cccc3ccccc23)nc1 |  |
| 2.79 µg/mL (≈ 7.41 µM) |  | Cc1cc(C)cc(CN/C(=N\O)c2ccc(C)nc2OCc2ccccn2)c1 |  |
| 1.41 µg/mL (≈ 4.96 µM) |  | COc1ccc(/C(=N/O)Nc2cccc(C(C)C)c2)cc1 | 5.81 µg/mL (≈ 20.4 µM) |
| > 5 µg/mL |  | CCc1cccc(NS(=O)(=O)c2ccc(OC)c(OC)c2)c1 | > 10 µg/mL |
| 1.47 µg/mL (≈ 3.72 µM) |  | O/N=C(\NC1CCc2ccccc21)c1cccnc1Oc1ccc2ccccc2c1 (configuration not stated) |  |
| 0.31 µg/mL (≈ 0.882 µM) |  | O/N=C(\NC1CCCC1)c1ccc(Oc2cccc3c2CCCC3)nc1 |  |
| 1.43 µg/mL (≈ 3.65 µM) |  | O/N=C(\NCC1CCCCC1)c1ccc(Oc2ccc(-n3ccnc3)cc2)nc1 |  |
| 0.62 µg/mL (≈ 1.67 µM) |  | O/N=C(\NCc1ccccc1)c1cccnc1Oc1ccc(F)cc1Cl |  |
| 0.41 µg/mL (≈ 1.19 µM) |  | CCC(CC)N/C(=N\O)c1cccnc1Oc1ccccc1SC |  |
| 3.98 µg/mL (≈ 11.1 µM) |  | O/N=C(\NCC1CCCCC1)c1ccnc(Oc2ccc(Cl)cc2)c1 |  |
| 0.37 µg/mL (≈ 1.19 µM) |  | CCc1ccc(Oc2ccc(/C(=N/O)NCC3CC3)cn2)cc1 |  |
